Source: US5362630A, “Isolation of pseudomonas salicylate hydroxlase and its use for the identification and quantitation of salicylate in body fluids” (Duke University, priority 1992, dated 1994)

Experiments:
salicylate hydroxylase [1] = experiment: Salicylate hydroxylase enzyme assay (NAD(P)H oxidation at 340 nm); type: biochemical, Pseudomonas
Method: Generally the reaction is carried out in a buffered solution (unless pH change or CO2 evolution is being measured). The buffer should offer near physiological conditions of pH and ionic strength for the enzyme. A potassium phosphate buffer, pH 7.6, at a concentration of 20 mM is preferred, although any pH from 6.5 to 8.9 and concentration from 5 to 100 mM is adequate. The sample may be added in any amount sufficient to trigger enzyme activity (if the salicylate is present in the sample) and the choice of sample size is discussed fully at a later time. From 1 to 40 μl per ml of total volume is convenient. Since the enzyme is generally available as a solution, it is conveniently added as such. About 10 μl of an enzyme solution containing 0.01 to 1 IU/ml is sufficient for most conditions, although the amount may be increased to speed up the reaction or decreased to slow the reaction down as needed. One IU (International Unit) is the amount of enzyme required to catalyze the disappearance of one μmole of NADH/min. NADH (or NADPH) may be present in a concentration of from about 10 to about 290 μM. Since the concentration of O2 in aqueous media is between 0.20 mM and 0.30 mM, it is not necessary to keep NAD(P)H concentration higher than […].
Enzyme Assay. The assay procedure for the enzyme and the definition of the enzyme were the same as that described in White-Stevens and Kamin (1970) except that EDTA and FAD were excluded in the assay mixture of the present work. The extinction coefficient of 6.22×10^3 M^-1 cm^-1 was used to convert the A340 change to micromoles of NADH oxidized.

[2] = cited from earlier work
salicylate hydroxylase [3] = conditions: cited from earlier work; for product inhibition of the enzyme: found by White-Stevens and Kamin

O=C(O)CN(CCN(CC(=O)O)CC(=O)O)CC(=O)O [EDTA, ethylenediaminetetracetic acid]
inhibition of / interference with the enzyme activity (salicylate hydroxylase [1]): do not inhibit

CC(=O)Nc1ccc(O)cc1 [acetaminophen]
inhibition of / interference with the enzyme activity (salicylate hydroxylase [1]): do not interfere

CC(=O)Oc1ccccc1C(=O)O [aspirin, acetylsalicylic acid]
overdose serum/plasma level (serious poison, coma and death) [2]: over 45 mg/dl

O=C(O)c1ccccc1 [benzoate]
Km (salicylate hydroxylase [3]; substrate or pseudosubstrate of salicylate hydroxylase, read-out: Km of the enzyme): 2000 µM

Oc1ccccc1O [catechol]
product inhibition of the enzyme (salicylate hydroxylase [3]): no product inhibition

O=C(O)CC(O)(CC(=O)O)C(=O)O [citrate]
inhibition of / interference with the enzyme activity (salicylate hydroxylase [1]): do not inhibit

O=C(O)C(=O)O [oxalate]
inhibition of / interference with the enzyme activity (salicylate hydroxylase [1]): do not inhibit

O=C(O)c1ccccc1O [salicylate]
therapeutic range, serum or plasma level [2]: 5 to 40 mg/dL

NAD(P)^+
product inhibition of the enzyme (salicylate hydroxylase [3]): no product inhibition

heparin
inhibition of / interference with the enzyme activity (salicylate hydroxylase [1]): no effect
